The test addresses T1, synthetic Aβ1-42 aggregates (Homo sapiens, UniProt P05067).
T1 construct: synthetic Aβ1-42 aggregates
Kind of test: FCS measurement of association of the probe Aβ1-42-Cy2 to Aβ1-42 aggregates in the presence of a suspected active substance (screening model). Type of test: biochemical. An excerpt: A screening method for detecting active substances for the treatment of diseases associated with pathological protein depositions, which is analogous with the method according to the invention, is based on the fact that the association of substructures of the pathological protein depositions, structures forming pathological protein depositions, structures corresponding to pathological protein depositions and/or pathological protein depositions to substructures of the pathological protein depositions, structures forming pathological protein depositions, structures corresponding to pathological protein depositions as targets is measured in the presence of suspected active substances. As an alternative, association of substructures of pathological protein depositions, structures forming pathological protein depositions, structures corresponding to pathological protein depositions and/or pathological protein depositions to substructures of the pathological protein depositions, structures forming pathological protein depositions, structures corresponding to pathological protein depositions as targets is first performed, and then the reversal of the association under the action of suspected active substances is observed. Then, those compounds are identified as active substances which are capable of causing a reversal of the association in a significant way. […]

SMILES strings stand for the structures.

T1 sequence (P05067 672-713 limits assumed): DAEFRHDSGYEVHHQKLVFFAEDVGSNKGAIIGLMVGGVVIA

In the case of `Nc1c(/N=N/c2ccc(-c3ccc(/N=N/c4cc(S(=O)(=O)O)c5ccccc5c4N)cc3)cc2)cc(S(=O)(=O)O)c2ccccc12` [Congo red], the “detectable peaks as compared to the control batch” value (1 mM Congo red, FCS, 20 measurements each with one minute of measuring time, FIG. 13 bottom vs top) is “significant decrease of the detectable peaks”. Besides, the activity at 1000 µM (read-out: decrease of the signal intensity of the homologous association to) was 20%.

These data come from US20020042121A1, “METHOD FOR MEASURING THE ASSOCIATION OF SUBSTRUCTURES OF PATHOLOGICAL PROTEIN DEPOSITIONS” (priority 1997, published 2002).
